Active and inactive are the calls of the source. The calls are words filed in the database; no cut-off is given here.
Legend:
MCF/ADR [1] = assay: Cytocidal effect in human multidrug resistant MCF/ADR cells assessed as decrease in number of viable cells at 0.1 uM after 1 hr measured after 72 hrs in absence of drug by MTT colorimetric assay; format: functional, cell-based
MCF/WT [2] = assay: Cytostatic effect in human drug sensitive MCF/WT cells assessed as slight increase in number of viable cells at 0.1 uM after 1 hr measured after 72 hrs in absence of drug by MTT colorimetric assay; format: functional, cell-based
[3] = Cell cycle arrest in human drug-sensitive MCF/WT cells assessed as accumulation at sub G0/G1 phase at 0.3 uM after 24 hrs by propidium fluorescence flow cytometry; format: functional, cell-based
[4] = Cell cycle arrest in human drug-sensitive MCF/WT cells assessed as accumulation at G2/M phase at 0.3 uM after 24 hrs by propidium fluorescence flow cytometry; format: functional, cell-based
[5] = Cell cycle arrest in human drug-sensitive MCF/WT cells assessed as accumulation at G2/M phase at 0.3 uM after 72 hrs by propidium fluorescence flow cytometry; format: functional, cell-based
[6] = Cell cycle arrest in human multidrug resistant MCF/ADR cells assessed as accumulation at G0/G1 phase at 0.3 uM after 24 hrs by propidium fluorescence flow cytometry; format: functional, cell-based
[7] = Cell cycle arrest in human multidrug resistant MCF/ADR cells assessed as accumulation at G0/G1 phase at 0.3 uM after 48 hrs by propidium fluorescence flow cytometry; format: functional, cell-based
[8] = Cell cycle arrest in human multidrug resistant MCF/ADR cells assessed as accumulation at S phase at 0.3 uM after 48 hrs by propidium fluorescence flow cytometry; format: functional, cell-based
[9] = Cell cycle arrest in human multidrug resistant MCF/ADR cells assessed as accumulation at G2/M phase at 0.3 uM after 48 hrs by propidium fluorescence flow cytometry; format: functional, cell-based
MCF/ADR [10] = assay: Induction of apoptosis in human multidrug resistant MCF/ADR cells assessed as annexin V binding to phosphatidylserine at 0.3 uM after 6 hrs; format: functional, cell-based
MCF/WT [11] = assay: Induction of apoptosis in human drug sensitive MCF/WT cells assessed as annexin V binding to phosphatidylserine at 0.3 uM after 6 hrs; format: functional, cell-based
MCF/ADR [12] = assay: Decrease in p53 accumulation in human multidrug resistant MCF/ADR cells at 0.3 uM after 72 hrs by immunoblot analysis; format: functional, cell-based
MCF/WT [13] = assay: Increase in p21CIP accumulation in human drug-sensitive MCF/WT cells at 0.3 uM after 48 hrs by immunoblot analysis; format: functional, cell-based
[14] = target: T1, c-Jun N-terminal kinase, JNK (Homo sapiens) (UniProt P45983+P53779+P45984); assay: Inhibition of induction of JNK phosphorylation in human multidrug resistant MCF/ADR cells at 0.3 uM after 48 hrs by immunocytochemical analysis in presence of rottlerin; format: cell-based
[15] = target: T1, c-Jun N-terminal kinase, JNK (Homo sapiens); assay: Induction of JNK phosphorylation in human multidrug resistant MCF/ADR cells transfected with PKCdelta siRNA at 0.3 uM after 48 hrs by immunocytochemical analysis; format: cell-based
[16] = target: Transcription factor Jun (Homo sapiens) (UniProt P05412); assay: Reduction in induction of phosphorylated form of c-Jun in SP600125 pretreated human multidrug resistant MCF/ADR cells at 0.3 uM after 48 hrs by immunoblot analysis; format: cell-based
Transcription factor Jun (Homo sapiens), sequence (P05412 whole entry): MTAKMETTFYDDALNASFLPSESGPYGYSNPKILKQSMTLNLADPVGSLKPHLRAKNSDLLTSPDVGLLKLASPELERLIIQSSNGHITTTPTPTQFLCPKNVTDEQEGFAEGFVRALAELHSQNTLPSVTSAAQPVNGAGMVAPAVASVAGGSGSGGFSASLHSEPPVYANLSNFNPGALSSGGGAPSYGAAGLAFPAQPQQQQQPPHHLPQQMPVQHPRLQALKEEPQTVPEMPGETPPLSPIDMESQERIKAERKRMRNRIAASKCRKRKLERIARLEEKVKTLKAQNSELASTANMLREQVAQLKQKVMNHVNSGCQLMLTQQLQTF

MCF/ADR [17] = assay: Reduction in induction of apoptosis in SP600125 pretreated human multidrug resistant MCF/ADR cells assessed as reduction of cleavage of PARP at 0.3 uM after 48 hrs by immunoblot analysis; format: functional, cell-based
[18] = target: Transcription factor Jun (Homo sapiens) (UniProt P05412); assay: Reduction in induction of c-Jun expression in human multidrug resistant MCF/ADR cells at 0.3 uM after 48 hrs by immunoblot analysis in presence of caspase 9 inhibitor; format: cell-based
[19] = target: Transcription factor Jun (Homo sapiens) (UniProt P05412); assay: Reduction in induction of c-Jun phosphorylation in human multidrug resistant MCF/ADR cells transfected with c-Jun siRNA at 0.3 uM after 48 hrs by immunoblot analysis; format: cell-based
MCF/WT [20] = assay: Increase in Bcl-x/s levels in human drug-sensitive MCF/WT cells at 0.3 uM by immunoblot analysis; format: functional, cell-based
MCF/ADR [21] = assay: Increase in Bcl-x/s levels in human multidrug resistant MCF/ADR cells at 0.3 uM by immunoblot analysis; format: functional, cell-based
MCF/WT [22] = assay: Increase in Bcl-2 levels in human drug-sensitive MCF/WT cells at 0.3 uM by immunoblot analysis; format: functional, cell-based
MCF/ADR [23] = assay: Increase in Bcl-2 levels in human multidrug resistant MCF/ADR cells at 0.3 uM by immunoblot analysis; format: functional, cell-based
MCF/ADR [24] = assay: Induction of apoptosis in human multidrug resistant MCF/ADR cells assessed as cleavage of lamin A at 0.3 uM by immunoblot analysis; format: functional, cell-based
MCF-10A = assay: Induction of apoptosis in human MCF10A cells assessed as accumulation of PARP at 0.3 uM after 48 hrs by immunoblot analysis; format: functional, cell-based
MCF/WT [25] = assay: Induction of apoptosis in human drug-sensitive MCF/WT cells assessed as activation of caspase 6 at 0.3 uM by immunoblot analysis; format: functional, cell-based
MCF/WT [26] = assay: Induction of JNK p46 isoform phosphorylation in human drug-sensitive MCF/WT cells at 0.3 uM after 48 hrs by immunoblot analysis; format: cell-based
[27] = target: Transcription factor Jun (Homo sapiens) (UniProt P05412); assay: Induction of c-Jun serine 73 phosphorylation in human multidrug resistant MCF/ADR cells at 0.3 uM; format: cell-based
MCF/ADR [28] = assay: Reduction of lamin A cleavage in human multidrug resistant MCF/ADR cells transfected with c-Jun siRNA at 0.3 uM after 48 hrs by immunoblot analysis; format: functional, cell-based
MCF/ADR [29] = assay: Reduction of […] cleavage in human multidrug resistant MCF/ADR cells transfected with c-Jun siRNA at 0.3 uM after 48 hrs by immunoblot analysis; format: functional, cell-based
[30] = target: Bcl-2-like protein 1 (Homo sapiens) (UniProt Q07817); assay: Inhibition of induction of Bcl-x/s phosphorylation in human multidrug resistant MCF/ADR cells at 0.3 uM after 48 hrs in presence of SP600125; format: functional, cell-based
Bcl-2-like protein 1 (Homo sapiens), sequence (Q07817 whole entry): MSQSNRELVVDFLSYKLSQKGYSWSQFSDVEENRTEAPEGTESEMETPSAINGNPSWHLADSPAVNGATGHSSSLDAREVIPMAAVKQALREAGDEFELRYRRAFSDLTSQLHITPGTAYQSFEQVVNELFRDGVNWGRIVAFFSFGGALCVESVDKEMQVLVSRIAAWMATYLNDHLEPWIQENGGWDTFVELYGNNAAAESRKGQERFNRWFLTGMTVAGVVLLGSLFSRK

MCF/ADR [31] = assay: Blockade of apoptosis induction in human multidrug resistant MCF/ADR cells at 0.3 uM after 48 hrs in presence of rottlerin; format: functional, cell-based
MCF/ADR [32] = assay: Reduction in induction of apoptosis in human multidrug resistant MCF/ADR cells assessed as suppression of caspase 9 activation at 0.3 uM after 48 hrs by immunoblot analysis in presence of rottlerin; format: functional, cell-based
MCF/ADR [33] = assay: Reduction in induction of apoptosis in human multidrug resistant MCF/ADR cells assessed as suppression of lamin A cleavage at 0.3 uM after 48 hrs by immunoblot analysis in presence of rottlerin; format: functional, cell-based
[34] = Inhibition of PKC
[35] = Inhibition of nuclear protein kinase 2
MCF/ADR [36] = assay: Induction of c-Jun expression in human multidrug resistant MCF/ADR cells at 0.3 uM; format: functional, cell-based
[37] = Reduction in induction of c-Jun expression in human multidrug resistant MCF/ADR cells at 0.3 uM after 48 hrs by immunoblot analysis in presence of rottlerin; format: functional, cell-based
[38] = target: Transcription factor Jun (Homo sapiens) (UniProt P05412); assay: Induction of c-Jun phosphorylation in human drug-sensitive MCF/WT cells at 0.3 uM; format: cell-based
MCF/ADR [39] = assay: Cytocidal effect in human multidrug resistant MCF/ADR cells assessed as decrease in number of viable cells at 0.1 uM after 72 hrs by MTT colorimetric assay; format: functional, cell-based

## NC(=O)c1cn([C@@H]2O[C@H](CO)[C@@H](O)[C@H]2O)c2ncnc(N)c12 [SANGIVAMYCIN]
MCF/ADR [1]
  Activity: Active
MCF/WT [2]
  Activity: Active
[3]
  Activity: 1%
[4]
  Activity: 28%
[5]
  Activity: 28%
[6]
  Activity: 33%
[7]
  Activity: 20%
[8]
  Activity: 23%
[9]
  Activity: 17%
MCF/ADR [10]
  Activity: Active
MCF/WT [11]
  Activity: inactive
MCF/ADR [12]
  Activity: Active
MCF/WT [13]
  Activity: Active
[14]
  Activity: Active
[15]
  Activity: inactive
[16]
  Activity: Active
MCF/ADR [17]
  Activity: Active
[18]
  Activity: inactive
[19]
  Activity: Active
MCF/WT [20]
  Activity: Active
MCF/ADR [21]
  Activity: Active
MCF/WT [22]
  Activity: Active
MCF/ADR [23]
  Activity: inactive
MCF/ADR [24]
  Activity: Active
MCF-10A
  Activity: inactive
MCF/WT [25]
  Activity: inactive
MCF/WT [26]
  Activity: inactive
[27]
  Activity: Active
MCF/ADR [28]
  Activity: inactive
MCF/ADR [29]
  Activity: inactive
[30]
  Activity: Active
MCF/ADR [31]
  Activity: Active
MCF/ADR [32]
  Activity: Active
MCF/ADR [33]
  Activity: Active
[34]
  Ki: 10 µM
[35]
  Ki: 100 µM
MCF/ADR [36]
  Activity: Active
[37]
  Activity: Active
[38]
  Activity: inactive
MCF/ADR [39]
  Activity: Active
